Tested on: isolated colon section
Details: rabbit, in vivo
Description: Each rabbit was anesthetized using an intramuscular injection of xylazine and ketamine, given at 5-8 mg/kg and 35-40 mg/kg, respectively. The abdomen and the cervical area was then shaved. A surgical cutdown was performed to place a catheter into the jugular vein for maintaining anesthesia throughout the entire exposure period. The maintenance anesthesia was sodium pentobarbitol given at 13 mg/kg as needed. An endotracheal tube was then inserted to facilitate normal respiration.
In the anesthetized animal model a section of the colon, immediately proximal to the cecum, was isolated with the mesenteric vascular system intact. Two ligatures were placed approximately 15-20 cm apart around the colon section. The isolated section was then freed from the remaining intestine by cutting between the ligatures, taking care to leave the vascular and nervous systems intact. A longitudinal incision was made along the entire length of the isolated colon section and the fecal material removed. The isolated colon section is then placed onto a three-cell test chamber which forms the floor of the test cell. The test cell is continuously perfused with Lactated Ringer's solution at a rate of 2.2 ml per minute using a Model 975 Harvard pump. The test chamber is allowed to equilibrate for one hour to maintain a constant temperature of 37° C. (±2° C.). […]
A quantity of the test material was chosen such that the total milligram amount of aspirin delivered over the 6-hour exposure period was equal to the total dose of aspirin provided by the positive control.
After 6 hours of continuous exposure, each rabbit was euthanized using an intravenous injection of sodium pentobarbitol given at approximately 100 mg/kg. The isolated section of exposed colon was removed from the intestine and evaluated for macroscopic evidence of irritation for both degree (0-4) and area (0-6.40 cm^2). […]

## CC(=O)Oc1ccccc1C(=O)O [Aspirin, aspirin]
  Mean Irritation Area: 4.48 cm^2
  Mean Irritation Index: 17.93
  Mean Irritation Source: 4.00

— US5582837A, “Alkyl-substituted cellulose-based sustained-release oral drug dosage forms” (priority 1995, dated 1996)
